Our source for the IC50 values is patent publication US4558058A, “Substituted 1,4-dihydropyridines and their use as medicaments” (Cassella Aktiengesellschaft, priority 1982, dated 1985).

pIC50: −log10 of the molar value. Read-outs that look alike come from different tables or passages of the source.

For the assay, the system named is helical strips of pulmonary artery of guinea pigs. The assay is described as follows: calcium-antagonistic action: inhibition of CaCl2-induced contraction of potassium-depolarised helical strips of pulmonary artery. The assay is classed as cell-based. The note with it: guinea pig pulmonary artery strips, calcium-free Tyrode's solution, 40 mmol potassium, 0.5 mmol CaCl2, mean value from 4 to 6 strips, read-out: IC50 (concentration of the test substance which inhibits contraction by 50%). The protocol:
This entailed helical strips of pulmonary artery of guinea pigs being equilibrated in calcium-free Tyrode's solution and depolarised with 40 mmol of potassium. Addition of 0.5 mmol of CaCl2 then initiates contraction. The relaxant action of the test substance is determined by cumulative addition of concentrations increasing in steps of 1/2 log 10.

For “2-Methylethyl 1,4-dihydro-2,6-dimethyl-4-(3-cyanophenyl)-5-(3-methyl-1,2,4-oxadiazol-5-yl)pyridine-3-carboxylate [Example 1t]”, the pIC50 is 8.82.

As to `CC1=C(C(=O)OCC(C)C)C(c2cccc([N+](=O)[O-])c2)C(c2nnco2)=C(C)N1` (stereo not shown) [Example 1z, Isobutyl 1,4-dihydro-2,6-dimethyl-4-(3-nitrophenyl)-5-(1,3,4-oxadiazol-2-yl)pyridine-3-carboxylate], the pIC50 (Cavia porcellus) was 9.82.

As to `COC(=O)C1=C(C)NC(C)=C(c2nnco2)C1c1cccc(Cl)c1Cl` (stereo not shown) [Example 2b, Methyl 1,4-dihydro-2,6-dimethyl-4-(2,3-dichlorophenyl)-5-(1,3,4-oxadiazol-2-yl)pyridine-3-carboxylate], the pIC50 (Cavia porcellus) is 9.40.

For `COC(=O)C1=C(C)NC(C)=C(c2nnc(C)o2)C1c1cccc(Cl)c1Cl` (stereo not shown) [Example 2e, Methyl 1,4-dihydro-2,6-dimethyl-4-(2,3-dichlorophenyl)-5-(5-methyl-1,3,4-oxadiazol-2-yl)pyridine-3-carboxylate], the pIC50 (Cavia porcellus) is 8.80.

Consider `CC1=C(C(=O)OC(C)C)C(c2cccc([N+](=O)[O-])c2)C(c2nnco2)=C(C)N1` (stereo not shown) [Example 2n, Isopropyl 1,4-dihydro-2,6-dimethyl-4-(3-nitrophenyl)-5-(1,3,4-oxadiazol-2-yl)pyridine-3-carboxylate], for which the pIC50 (Cavia porcellus) was 10.05.

In the case of `COCCOC(=O)C1=C(C)NC(C)=C(c2nnco2)C1c1ccccc1[N+](=O)[O-]` (stereo not shown) [Example 2o, 2-Methoxyethyl 1,4-dihydro-2,6-dimethyl-4-(2-nitrophenyl)-5-(1,3,4-oxadiazol-2-yl)pyridine-3-carboxylate], the pIC50 (Cavia porcellus) is 9.52.

With `COC(=O)C1=C(C)NC(C)=C(c2nc(Cc3ccccc3)no2)C1c1cccc([N+](=O)[O-])c1` (stereo not shown) [Example 2r, Methyl 1,4-dihydro-2,6-dimethyl-4-(3-nitrophenyl)-5-(3-benzyl-1,2,4-oxadiazol-5-yl)pyridine-3-carboxylate], under “Cavia porcellus”, the pIC50 was 9.30.

Consider `COC(=O)C1=C(C)NC(C)=C(c2nc(Cc3ccccc3)no2)C1c1cccc(Cl)c1Cl` (stereo not shown) [Example 2s, Methyl 1,4-dihydro-2,6-dimethyl-4-(2,3-dichlorophenyl)-5-(3-benzyl-1,2,4-oxadiazol-5-yl)pyridine-3-carboxylate], for which, for the setting “Cavia porcellus”, the pIC50 was 9.15.

For `COC(=O)C1=C(C)NC(C)=C(c2nc(Cc3ccccc3)no2)C1c1ccccc1[N+](=O)[O-]` (stereo not shown) [Example 2t, Methyl 1,4-dihydro-2,6-dimethyl-4-(2-nitrophenyl)-5-(3-benzyl-1,2,4-oxadiazol-5-yl)pyridine-3-carboxylate], the pIC50 (Cavia porcellus) was 9.00.

In the case of `COCCOC(=O)C1=C(C)NC(C)=C(c2nc(Cc3ccccc3)no2)C1c1cccc([N+](=O)[O-])c1` (stereo not shown) [Example 2v, 2-Methoxyethyl 1,4-dihydro-2,6-dimethyl-4-(3-nitrophenyl)-5-(3-benzyl-1,2,4-oxadiazol-5-yl)pyridine-3-carboxylate], the pIC50 (Cavia porcellus) is 9.15.

As to `COC(=O)C1=C(C)NC(C)=C(c2nc(Cc3ccccc3)no2)C1c1ccccc1Cl` (stereo not shown) [Example 2w, Methyl 1,4-dihydro-2,6-dimethyl-4-(2-chlorophenyl)-5-(3-benzyl-1,2,4-oxadiazol-5-yl)pyridine-3-carboxylate], where the note is “Cavia porcellus”, the pIC50 is 8.60.

Consider `CC1=C(C(=O)OCCOC(C)C)C(c2cccc(Cl)c2Cl)C(c2nnc(C)o2)=C(C)N1` (stereo not shown) [Example 2z1, 2-Isopropoxyethyl 1,4-dihydro-2,6-dimethyl-4-(2,3-dichlorophenyl)-5-(2-methyl-1,3,4-oxadiazol-5-yl)pyridine-3-carboxylate], for which the pIC50 (Cavia porcellus) is 8.82.

As to `CC1=C(C(=O)OC(C)C)C(c2cccc(Cl)c2Cl)C(c2nnco2)=C(C)N1` (stereo not shown) [Example 2z2, Isopropyl 1,4-dihydro-2,6-dimethyl-4-(2,3-dichlorophenyl)-5-(1,3,4-oxadiazol-2-yl)pyridine-3-carboxylate], the pIC50 (Cavia porcellus) was 9.70.

Turning to `CC1=C(c2nnco2)C(c2cccc([N+](=O)[O-])c2)C(c2nnco2)=C(C)N1` [Example 3a, 1,4-Dihydro-2,6-dimethyl-3,5-di(1,3,4-oxadiazol-2-yl)-4-(3-nitrophenyl)pyridine], the pIC50 (Cavia porcellus) is 8.70.

For the molecule `CCc1noc(C2=C(C)NC(C)=C(C(=O)OCCOC)C2c2cccc(Cl)c2Cl)n1` (stereo not shown) [Example 4b, 2-Methoxyethyl 1,4-dihydro-2,6-dimethyl-4-(2,3-dichlorophenyl)-5-(3-ethyl-1,2,4-oxadiazol-5-yl)pyridine-3-carboxylate], the pIC50 (Cavia porcellus) is 8.74.

Take `CCc1noc(C2=C(C)NC(C)=C(C(=O)OC)C2c2cccc(Cl)c2Cl)n1` (stereo not shown) [Example 4c, Methyl 1,4-dihydro-2,6-dimethyl-4-(2,3-dichlorophenyl)-5-(3-ethyl-1,2,4-oxadiazol-5-yl)pyridine-3-carboxylate]: the pIC50 (Cavia porcellus) was 8.62.

Turning to `CCc1nnc(C2=C(C)NC(C)=C(C(=O)OCCOC)C2c2cccc([N+](=O)[O-])c2)o1` (stereo not shown) [Example 4k, 2-Methoxyethyl 1,4-dihydro-2,6-dimethyl-4-(3-nitrophenyl)-5-(2-ethyl-1,3,4-oxadiazol-5-yl)pyridine-3-carboxylate], where the note is “Cavia porcellus”, the pIC50 was 9.00.

Turning to `CCc1nnc(C2=C(C)NC(C)=C(C(=O)OCCOC)C2c2cccc(Cl)c2Cl)o1` (stereo not shown) [Example 4m, 2-Methoxyethyl 1,4-dihydro-2,6-dimethyl-4-(2,3-dichlorophenyl)-5-(2-ethyl-1,3,4-oxadiazol-5-yl)pyridine-3-carboxylate], the pIC50 (Cavia porcellus) is 8.82.

For the molecule `CCOC(=O)c1sc(C2=C(C)NC(C)=C(C(=O)OCCOC)C2c2cccc([N+](=O)[O-])c2)nc1C` (stereo not shown) [Example 5b, 2-Methoxyethyl 1,4-dihydro-2,6-dimethyl-4-(3-nitrophenyl)-5-(4-methyl-5-ethoxycarbonyl-2-thiazolyl)pyridine-3-carboxylate], the pIC50 (Cavia porcellus) was 8.80.
